# Test results from US9857357B2, “Method of screening modulator of XKR8” (KYOTO UNIVERSITY, priority 2012, dated 2018).
# What was measured:
# Format in all cases: cell-based, human
# [1] = tested on: Xkr8 mRNA in PLB-985 cells; assay: Real-time RT-PCR of Xkr8 mRNA in DAC-treated PLB-985 cells
# Description: To treat human PLB-985 cells with 5-aza-2′-deoxycytidine (DAC, Sigma-Aldrich), 1.0×10^6 cells in 10 ml of RPMI containing 10% FCS were incubated with 0.5 μM DAC for up to 7 days. Since DAC is an unstable compound, the medium containing DAC was changed every 24 hours. After DAC treatment, the cells were divided into three portions: one portion for FACS to analyze the PtdSer exposure, one for real-time RT-PCR for Xkr8 gene expression, and one for the methylation-specific PCR analysis^67. For the bisulfite genomic sequencing, the DNA was modified with bisulfite using a kit (MethyEasy Xceed, Human Genetic Signatures). In brief, 3 μg DNA was denatured by incubation at 37° C. for 15 min in 0.3 M NaOH, and treated with sodium bisulfite according to the protocol provided by the supplier except that the incubation time was changed to 90 min. The modified DNA was denatured at 95° C. for 20 min, and amplified by PCR using primers specific for the treated DNA ([…] (SEQ ID NO; 20) and […] (SEQ ID NO; 21)). PCR was carried out with EpiTaq HS polymerase (Takara Bio) for 7-40 cycles, and the product was cloned in a pGEM-Teasy vector for sequencing. […]
# The specific mRNA was quantified at the point where the LightCycler System detected the upstroke of the exponential phase of PCR accumulation with the respective linearized plasmid DNA as reference.
# [2] = tested on: CpG sites of the hXkr8 gene promoter in PLB-985 cells; assay: Bisulfite genomic sequencing of CpG sites between -239 and +7 of the hXkr8 gene; details: 0.5 μM DAC, day 7
# Description: To treat human PLB-985 cells with 5-aza-2′-deoxycytidine (DAC, Sigma-Aldrich), 1.0×10^6 cells in 10 ml of RPMI containing 10% FCS were incubated with 0.5 μM DAC for up to 7 days. Since DAC is an unstable compound, the medium containing DAC was changed every 24 hours. After DAC treatment, the cells were divided into three portions: one portion for FACS to analyze the PtdSer exposure, one for real-time RT-PCR for Xkr8 gene expression, and one for the methylation-specific PCR analysis^67. For the bisulfite genomic sequencing, the DNA was modified with bisulfite using a kit (MethyEasy Xceed, Human Genetic Signatures). In brief, 3 μg DNA was denatured by incubation at 37° C. for 15 min in 0.3 M NaOH, and treated with sodium bisulfite according to the protocol provided by the supplier except that the incubation time was changed to 90 min. The modified DNA was denatured at 95° C. for 20 min, and amplified by PCR using primers specific for the treated DNA ([…] (SEQ ID NO; 20) and […] (SEQ ID NO; 21)). PCR was carried out with EpiTaq HS polymerase (Takara Bio) for 7-40 cycles, and the product was cloned in a pGEM-Teasy vector for sequencing.
# PLB-985 cells = assay: PtdSer exposure (Cy5-Annexin V staining) of DAC-treated PLB-985 cells after UV irradiation; details: PLB-985 cells treated with DAC for five days, Cy5-Annexin V and PI
# Description: Apoptosis was induced by treating cells with FasL or staurosporine, or exposing them to UV. In brief, 5×10^5 cells in 500 μl of culture medium were incubated at 37° C. with 10-400 units/ml hFasL for 1.2-2.0 h or with 10 μM staurosporine for 1.5-4.0 h. For UV exposure, 1×10^6 cells in 2 ml of PBS were exposed to 500-2000 J/m UV radiation (254 nm) in a StrataLinker UV oven (Stratagene), and incubated at 37° C. for 1.5-2.0 h in 4 ml of RPMI1640 containing 10% FCS. To monitor Ca^2÷-ionophore-induced PtdSer exposure, cells (5×10^5 cells) in 500 μl of Annexin V staining buffer (10 mM Hepes-NaOH buffer [pH7.4] containing 140 mM NaCl and 2.5 mM CaCl2) were incubated at 20° C. for 3 min, treated with 3.0-10 μM A23187, and analyzed with FACSAria at 20° C.
# To detect PtdSer and PtdEtn exposed on the cell surface, cells were stained on ice for 15 min with 2500-5000-fold diluted Cy5-Annexin V (Biovision) or 800-fold diluted-biotin-Ro09-0198^66 followed by 1.0 μg/ml APC-streptavidin in Annexin V staining buffer in the presence of 5 μg/ml propidium iodide (PI), and analyzed by FACSAria or FACSCalibur (BD Biosciences). […] Aliquots (150 μl) were mixed with 150 μl HBSS containing 5 μg/ml fatty-acid free BSA (Sigma-Aldrich) and 500 nM Sytoxblue (Molecular Probes), and analyzed by FACSAria. […]
compound,measurement,setting,value
"Nc1ncn([C@H]2C[C@H](O)[C@@H](CO)O2)c(=O)n1 [DAC, 5-aza-2′-deoxycytidine]",Change of Xkr8 mRNA level,[1]; 0.5 μM DAC for up to 7 days,gradually increased
same,Xkr8 mRNA level relative to that in Namalwa cells,"[1]; 0.5 μM DAC, day 7",about 91%
same,Methylation status of the 23 CpG sites between -239 and +7,[2],highly demethylated
same,PtdSer exposure in response to UV irradiation,PLB-985 cells,gained the ability to expose PtdSer
